US12139520B2 (priority 2020, dated 2024)
Bridge positions count the residues as written; N and C are the ends. Square brackets hold non-standard residues; d marks the D form. Peptide text beside a SMILES is read from it. Hyp = O=C(O)[C@@H]1C[C@@H](O)CN1; Cit = NC(=O)NCCC[C@H](N)C(=O)O

Experiments:
hAMY3 receptor = target: T1, hAMY3 receptor (Homo sapiens, UniProt O60896+P30988); experiment: cAMP assay for in vitro receptor activation, hAMY3-R; type: cell-based; details: cAMP assay, hAMY3 receptor; read-out: hAMY3R EC50
T1 sequence (P30988 25-474): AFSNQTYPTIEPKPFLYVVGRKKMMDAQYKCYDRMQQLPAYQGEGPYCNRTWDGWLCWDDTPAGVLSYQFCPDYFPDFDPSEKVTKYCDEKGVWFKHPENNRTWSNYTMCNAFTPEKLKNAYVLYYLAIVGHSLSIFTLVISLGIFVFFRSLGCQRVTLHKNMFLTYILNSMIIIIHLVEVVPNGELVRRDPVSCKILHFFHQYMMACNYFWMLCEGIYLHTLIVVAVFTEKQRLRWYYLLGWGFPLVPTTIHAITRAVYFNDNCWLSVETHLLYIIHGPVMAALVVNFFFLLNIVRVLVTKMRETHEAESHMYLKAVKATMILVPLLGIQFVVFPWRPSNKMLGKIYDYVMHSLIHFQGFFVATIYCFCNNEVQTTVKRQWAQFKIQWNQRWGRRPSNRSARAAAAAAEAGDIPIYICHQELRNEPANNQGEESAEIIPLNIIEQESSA
T1 sequence (O60896 24-148 partner): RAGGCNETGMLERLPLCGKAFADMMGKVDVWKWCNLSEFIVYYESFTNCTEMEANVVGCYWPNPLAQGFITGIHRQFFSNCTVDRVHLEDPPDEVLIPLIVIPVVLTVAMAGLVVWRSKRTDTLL
Method in brief: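 Read-out is TR-FRET cAMP signal, recorded one hour after reagent addition, following 30 min room-temperature stimulation of stable hAMY3 cells with graded compound doses in casein/IBMX (0.5 mM) buffer.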

hAM1 receptor = hAM1 receptor (Homo sapiens, UniProt O60895+Q16602); experiment: cAMP assay for in vitro receptor activation, hAM1-R; type: cell-based; details: cAMP assay, hAM1 receptor; read-out: hAM1R EC50
Method in brief: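 Stable hAM1 cells (monoclonal) plated 8000/well; buffer DPBS, 0.05% casein, 0.5 mM IBMX; cAMP read-out.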

[1] = Physical stability of peptide analogues (Thioflavin T fibrillation); type: physicochemical; details: maximum ThT signal normalized between hAMY maximum and buffer background; 40° C., shaking, four days; pH 7 per table title
Method in brief: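 Maximum ThT emission at 480 nm, after LOESS smoothing, is given as percent of the span from buffer background to hAMY. Conditions: 50 mM buffer at pH 4 or 7, 4 μM dye, 40 °C, repeated shaking, readings every 10 min for four days.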

hAM1 receptor, sequence (Q16602 23-461): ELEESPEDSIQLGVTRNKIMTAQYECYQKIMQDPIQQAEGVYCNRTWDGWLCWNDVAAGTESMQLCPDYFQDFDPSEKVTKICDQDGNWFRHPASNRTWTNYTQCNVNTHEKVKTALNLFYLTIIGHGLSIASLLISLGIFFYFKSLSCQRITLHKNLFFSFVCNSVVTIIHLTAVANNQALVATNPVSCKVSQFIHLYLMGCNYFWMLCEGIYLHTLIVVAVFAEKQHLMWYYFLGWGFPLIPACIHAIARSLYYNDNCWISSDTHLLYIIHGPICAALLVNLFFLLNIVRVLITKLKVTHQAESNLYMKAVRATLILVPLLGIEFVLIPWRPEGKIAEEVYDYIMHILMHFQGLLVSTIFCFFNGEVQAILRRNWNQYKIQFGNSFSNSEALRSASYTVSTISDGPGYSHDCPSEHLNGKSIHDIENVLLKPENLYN
hAM1 receptor, sequence (O60895 43-175 partner): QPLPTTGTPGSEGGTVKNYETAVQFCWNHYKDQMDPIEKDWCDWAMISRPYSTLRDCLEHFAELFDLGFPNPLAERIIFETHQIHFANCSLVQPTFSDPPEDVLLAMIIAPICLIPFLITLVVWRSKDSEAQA

Row | Structure (SMILES) | EC50 (hAMY3 receptor) | EC50 (hAM1 receptor) | Max ThT signal (%) [1]
1 | CC[C@H](C)[C@H](NC(=O)[C@H](CCC(N)=O)NC(=O)[C@H](CC(=O)O)NC(=O)[C@H](C)NC(=O)[C@H](CC(C)C)NC(=O)[C@H](Cc1c[nH]c2ccccc12)NC(=O)[C@H](C)NC(=O)[C@@H](NC(=O)[C@@H](NC(=O)[C@@H]1CSSC[C@H](NC(=O)[C@@H](N)CCCCN)C(=O)N[C@@H](CC(N)=O)C(=O)N[C@@H]([C@@H](C)O)C(=O)N[C@@H](CO)C(=O)N[C@@H]([C@@H](C)O)C(=O)N1)[C@@H](C)O)C(C)C)C(=O)N[C@H](C(=O)N[C@@H](CCC(N)=O)C(=O)N[C@@H](Cc1ccccc1)C(=O)N[C@@H](CO)C(=O)N[C@@H](CC(=O)O)C(=O)N[C@@H](CCCCN)C(=O)N[C@@H](CC(=O)O)C(=O)N[C@@H](CCCCN)C(=O)N[C@@H](C)C(=O)N[C@@H](CC(N)=O)C(=O)N[C@H](C(=O)N[C@@H](CO)C(=O)N1CCC[C@H]1C(=O)N1CCC[C@H]1C(=O)N[C@H](C(=O)N[C@@H](CCC(=O)O)C(=O)N[C@H](C(=O)NCC(=O)N1CCC[C@H]1C(=O)N[C@@H](CC(N)=O)C(=O)N[C@@H](CO)C(=O)N1C[C@H](O)C[C@H]1C(N)=O)C(C)C)[C@@H](C)O)C(C)C)[C@@H](C)O [compound 310] (H-KCNTSTCTVAWLADQITQFSDKDKANVSPPTEVGPNS[Hyp]-NH2; disulfide 2-7) | 0.003 nM | > 5000 nM | 3.500%
2 | CC[C@H](C)[C@H](NC(=O)[C@H](CCC(N)=O)NC(=O)[C@H](Cc1c[nH]cn1)NC(=O)[C@H](C)NC(=O)[C@H](CC(C)C)NC(=O)[C@H](Cc1c[nH]c2ccccc12)NC(=O)[C@H](CCC(N)=O)NC(=O)[C@@H](NC(=O)[C@@H](NC(=O)[C@@H]1CSSC[C@H](NC(=O)CN)C(=O)N[C@@H](CCCNC(=N)N)C(=O)N[C@@H]([C@@H](C)O)C(=O)NCC(=O)N[C@@H]([C@@H](C)O)C(=O)N1)[C@@H](C)O)C(C)C)C(=O)N[C@@H](Cc1ccc(O)cc1)C(=O)N[C@@H](CCC(N)=O)C(=O)N[C@@H](Cc1ccccc1)C(=O)N[C@H](C(=O)N[C@@H](CC(=O)O)C(=O)N[C@@H](CCCCN)C(=O)N[C@@H](CC(=O)O)C(=O)N[C@@H](CCCCN)C(=O)N[C@@H](CC(=O)O)C(=O)N[C@@H](CC(N)=O)C(=O)N[C@H](C(=O)N[C@@H](C)C(=O)N1CCC[C@H]1C(=O)N[C@@H](CCCNC(=N)N)C(=O)N[C@H](C(=O)N[C@@H](CC(N)=O)C(=O)N[C@H](C(=O)NCC(=O)N1CCC[C@H]1C(=O)N[C@@H](CCC(N)=O)C(=O)NCC(=O)N[C@@H](Cc1ccc(O)cc1)C(N)=O)C(C)C)[C@@H](C)O)C(C)C)[C@@H](C)O [compound 335] (H-GCRTGTCTVQWLAHQIYQFTDKDKDNVAPRTNVGPQGY-NH2; disulfide 2-7; N-terminus assumed) | 0.015 nM | > 5000 nM | 1.600%
3 | CC[C@H](C)[C@H](NC(=O)[C@H](CCC(N)=O)NC(=O)[C@H](Cc1c[nH]cn1)NC(=O)[C@H](C)NC(=O)[C@H](CC(C)C)NC(=O)[C@H](CCCNC(=N)N)NC(=O)[C@H](CCC(N)=O)NC(=O)[C@@H](NC(=O)[C@@H](NC(=O)[C@@H]1CSSC[C@H](NC(=O)CN)C(=O)N[C@@H](CCCNC(=N)N)C(=O)N[C@@H](Cc2c[nH]c3ccccc23)C(=O)NCC(=O)N[C@@H]([C@@H](C)O)C(=O)N1)[C@@H](C)O)C(C)C)C(=O)N[C@@H](Cc1ccc(O)cc1)C(=O)N[C@@H](CCC(N)=O)C(=O)N[C@@H](Cc1ccccc1)C(=O)N[C@H](C(=O)N[C@@H](CC(=O)O)C(=O)N[C@@H](CCCCN)C(=O)N[C@@H](CC(=O)O)C(=O)N[C@@H](CCCCN)C(=O)N[C@@H](CC(=O)O)C(=O)N[C@@H](CC(N)=O)C(=O)N[C@H](C(=O)N[C@@H](C)C(=O)N1CCC[C@H]1C(=O)N[C@@H](CO)C(=O)N[C@@H](CO)C(=O)N[C@@H](CCCCN)C(=O)N[C@H](C(=O)N[C@@H](CO)C(=O)N1CCC[C@H]1C(=O)N[C@@H](CCC(N)=O)C(=O)N[C@H](C(=O)N1C[C@H](O)C[C@H]1C(N)=O)[C@@H](C)O)[C@@H](C)CC)C(C)C)[C@@H](C)O [compound 202] (H-GCRWGTCTVQRLAHQIYQFTDKDKDNVAPSSKISPQT[Hyp]-NH2; disulfide 2-7) | 0.126 nM | > 5000 nM | 12.600%

The next lines start with the values.

Row | EC50 (hAMY3 receptor) | EC50 (hAM1 receptor) | Max ThT signal (%) [1] | Structure (SMILES)
4 | 0.068 nM | > 5000 nM | 15.500% | CC[C@H](C)[C@H](NC(=O)[C@H](CCC(N)=O)NC(=O)[C@H](Cc1c[nH]cn1)NC(=O)[C@H](C)NC(=O)[C@H](CC(C)C)NC(=O)[C@H](Cc1c[nH]c2ccccc12)NC(=O)[C@H](CCC(N)=O)NC(=O)[C@@H](NC(=O)[C@@H](NC(=O)[C@@H]1CSSC[C@H](NC(=O)CN)C(=O)N[C@@H](CCCNC(=N)N)C(=O)N[C@@H]([C@@H](C)O)C(=O)NCC(=O)N[C@@H]([C@@H](C)O)C(=O)N1)[C@@H](C)O)C(C)C)C(=O)N[C@@H](Cc1ccc(O)cc1)C(=O)N[C@@H](CCC(N)=O)C(=O)N[C@@H](Cc1ccccc1)C(=O)N[C@H](C(=O)N[C@@H](CC(=O)O)C(=O)N[C@@H](CCCCN)C(=O)N[C@@H](CC(=O)O)C(=O)N[C@@H](CCCCN)C(=O)N[C@@H](CC(=O)O)C(=O)N[C@@H](CC(N)=O)C(=O)N[C@H](C(=O)N[C@@H](C)C(=O)N1CCC[C@H]1C(=O)N[C@@H](CCCNC(=N)N)C(=O)N[C@@H](CO)C(=O)N[C@@H](CCCCN)C(=O)N[C@H](C(=O)NCC(=O)N1CCC[C@H]1C(=O)N[C@@H](CC(N)=O)C(=O)NCC(=O)N1C[C@H](O)C[C@H]1C(N)=O)C(C)C)C(C)C)[C@@H](C)O [compound 347] (H-GCRTGTCTVQWLAHQIYQFTDKDKDNVAPRSKVGPNG[Hyp]-NH2; disulfide 2-7; N-terminus assumed)
5 | 0.008 nM | > 5000 nM | 6.800% | CC[C@H](C)[C@H](NC(=O)[C@H](CCC(N)=O)NC(=O)[C@H](Cc1c[nH]cn1)NC(=O)[C@H](C)NC(=O)[C@H](CC(C)C)NC(=O)[C@H](CCCNC(=N)N)NC(=O)[C@H](CCC(N)=O)NC(=O)[C@@H](NC(=O)[C@@H](NC(=O)[C@@H]1CSSC[C@H](NC(=O)[C@@H](N)CCCCN)C(=O)N[C@@H](CC(N)=O)C(=O)N[C@@H]([C@@H](C)O)C(=O)N[C@@H](C)C(=O)N[C@@H]([C@@H](C)O)C(=O)N1)[C@@H](C)O)C(C)C)C(=O)N[C@@H](Cc1ccc(O)cc1)C(=O)N[C@@H](CCC(N)=O)C(=O)N[C@@H](Cc1ccccc1)C(=O)N[C@H](C(=O)N[C@@H](C)C(=O)N[C@@H](CCCCN)C(=O)N[C@@H](CC(=O)O)C(=O)N[C@@H](CCCCN)C(=O)N[C@@H](CC(=O)O)C(=O)N[C@@H](CC(N)=O)C(=O)N[C@H](C(=O)N[C@@H](C)C(=O)N1CCC[C@H]1C(=O)N1CCC[C@H]1C(=O)N[C@H](C(=O)N[C@@H](CC(N)=O)C(=O)N[C@H](C(=O)NCC(=O)N[C@@H](CO)C(=O)N[C@@H](CC(N)=O)C(=O)NCC(=O)N1C[C@H](O)C[C@H]1C(N)=O)C(C)C)[C@@H](C)O)C(C)C)[C@@H](C)O [compound 24] (H-KCNTATCTVQRLAHQIYQFTAKDKDNVAPPTNVGSNG[Hyp]-NH2; disulfide 2-7; N-terminus assumed)
6 | 0.01 nM | > 5000 nM | 32.700% | CC[C@H](C)[C@H](NC(=O)[C@H](CCC(N)=O)NC(=O)[C@H](Cc1c[nH]cn1)NC(=O)[C@H](C)NC(=O)[C@H](CC(C)C)NC(=O)[C@H](CCCNC(N)=O)NC(=O)[C@H](CCC(N)=O)NC(=O)[C@@H](NC(=O)[C@@H](NC(=O)[C@@H]1CSSC[C@H](NC(=O)[C@@H](N)CCCCN)C(=O)N[C@@H](CC(N)=O)C(=O)N[C@@H]([C@@H](C)O)C(=O)N[C@@H](C)C(=O)N[C@@H]([C@@H](C)O)C(=O)N1)[C@@H](C)O)C(C)C)C(=O)N[C@@H](Cc1ccc(O)cc1)C(=O)N[C@@H](CCC(N)=O)C(=O)N[C@@H](Cc1ccccc1)C(=O)N[C@H](C(=O)N[C@@H](CC(=O)O)C(=O)N[C@@H](CCCCN)C(=O)N[C@@H](C)C(=O)N[C@@H](CCCCN)C(=O)N[C@@H](CC(=O)O)C(=O)N[C@@H](CC(N)=O)C(=O)N[C@H](C(=O)N[C@@H](C)C(=O)N1CCC[C@H]1C(=O)N1CCC[C@H]1C(=O)N[C@H](C(=O)N[C@@H](CC(N)=O)C(=O)N[C@H](C(=O)NCC(=O)N[C@@H](CO)C(=O)N[C@@H](CC(N)=O)C(=O)NCC(=O)N1C[C@H](O)C[C@H]1C(N)=O)C(C)C)[C@@H](C)O)C(C)C)[C@@H](C)O [compound 258] (H-KCNTATCTVQ[Cit]LAHQIYQFTDKAKDNVAPPTNVGSNG[Hyp]-NH2; disulfide 2-7; N-terminus assumed)
